The values below come from ChEMBL document CHEMBL1201862, “PubChem BioAssay data set” (2004).

Molecules are shown by their SMILES. Activity calls are given as the source filed them.

Experiment [1] deals with T1, E3 ubiquitin-protein ligase XIAP (Homo sapiens, UniProt P98170). Nature of the experiment: Counter Screen using XIAP-Bir3 for Chemical Antagonists of Bir1/2 domains of IAP-family anti-apoptotic proteins. [Related pubchem assays (depositor defined):AID1018, AID1449, AID1514, AID1638, AID1749, AID1750, AID488957, AID488963]. In general terms: The purpose of a counterscreen is to sort out artefacts and off-target activity.
T1 sequence (P98170 whole entry): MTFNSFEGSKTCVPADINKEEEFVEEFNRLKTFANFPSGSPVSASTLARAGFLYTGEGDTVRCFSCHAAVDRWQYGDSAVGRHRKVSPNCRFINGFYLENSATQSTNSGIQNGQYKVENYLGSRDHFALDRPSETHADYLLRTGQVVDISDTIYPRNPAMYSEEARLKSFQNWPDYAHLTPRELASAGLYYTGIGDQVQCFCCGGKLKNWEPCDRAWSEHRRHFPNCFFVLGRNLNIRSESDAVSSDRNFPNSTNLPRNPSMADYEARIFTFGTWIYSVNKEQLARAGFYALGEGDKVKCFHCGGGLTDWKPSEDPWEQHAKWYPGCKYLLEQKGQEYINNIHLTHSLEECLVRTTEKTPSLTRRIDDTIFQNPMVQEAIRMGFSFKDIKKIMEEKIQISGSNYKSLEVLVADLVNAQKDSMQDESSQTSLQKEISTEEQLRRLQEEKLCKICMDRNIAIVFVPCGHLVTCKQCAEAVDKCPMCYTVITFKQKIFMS

Experiment [2] addresses T1, E3 ubiquitin-protein ligase XIAP. In words: small molecules displacing peptide from XIAP – biochemical, IAP family, fluorescence polarization (AID 1018). Type of experiment: functional. In general terms: In fluorescence polarisation assays a small probe gives low polarisation when free and higher when bound to something large.
The next experiment addresses T2, X-box-binding protein 1 (Homo sapiens, UniProt P17861).
T2 sequence (P17861 whole entry): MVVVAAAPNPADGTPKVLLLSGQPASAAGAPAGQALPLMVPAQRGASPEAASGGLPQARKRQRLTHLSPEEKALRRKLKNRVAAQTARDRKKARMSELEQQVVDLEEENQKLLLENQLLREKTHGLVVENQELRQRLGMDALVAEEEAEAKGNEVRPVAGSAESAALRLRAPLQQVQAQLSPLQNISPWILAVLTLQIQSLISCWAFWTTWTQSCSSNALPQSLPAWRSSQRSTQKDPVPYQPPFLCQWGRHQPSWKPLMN
Type of experiment: functional, Cricetulus griseus.

Experiment [3] concerns the target T3, Heat shock factor protein 1 (Mus musculus, UniProt P38532).
T3 sequence (P38532 whole entry): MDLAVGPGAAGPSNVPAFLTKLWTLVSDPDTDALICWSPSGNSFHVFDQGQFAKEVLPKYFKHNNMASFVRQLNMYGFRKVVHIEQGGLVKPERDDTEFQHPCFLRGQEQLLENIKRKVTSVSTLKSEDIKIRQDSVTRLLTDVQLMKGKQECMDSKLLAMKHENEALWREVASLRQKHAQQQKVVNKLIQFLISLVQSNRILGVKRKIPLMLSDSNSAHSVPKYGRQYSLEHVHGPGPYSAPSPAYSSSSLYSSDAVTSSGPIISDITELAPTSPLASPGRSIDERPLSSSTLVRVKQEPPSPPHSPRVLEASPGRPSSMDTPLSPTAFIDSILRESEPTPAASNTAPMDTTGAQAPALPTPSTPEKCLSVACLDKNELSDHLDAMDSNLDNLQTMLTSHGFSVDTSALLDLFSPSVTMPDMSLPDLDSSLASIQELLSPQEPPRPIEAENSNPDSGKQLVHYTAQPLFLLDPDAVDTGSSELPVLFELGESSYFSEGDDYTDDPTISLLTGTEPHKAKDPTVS
In words: decrease of HSF1-responsive luciferase luminescence – cell-based, NIH3T3, dose retest, confirmation (AID 2382).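 Further: NIH3T3 fibroblasts with HSF1-driven luciferase reporter stressed by proteasome inhibitor MG132; luminescence from HSF1-driven luciferase expression after 8 hours of MG132 stress.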 Type of experiment: functional.

The target in experiment [4] is T4, Aryl hydrocarbon receptor (Homo sapiens, UniProt P35869).
T4 sequence (P35869 whole entry): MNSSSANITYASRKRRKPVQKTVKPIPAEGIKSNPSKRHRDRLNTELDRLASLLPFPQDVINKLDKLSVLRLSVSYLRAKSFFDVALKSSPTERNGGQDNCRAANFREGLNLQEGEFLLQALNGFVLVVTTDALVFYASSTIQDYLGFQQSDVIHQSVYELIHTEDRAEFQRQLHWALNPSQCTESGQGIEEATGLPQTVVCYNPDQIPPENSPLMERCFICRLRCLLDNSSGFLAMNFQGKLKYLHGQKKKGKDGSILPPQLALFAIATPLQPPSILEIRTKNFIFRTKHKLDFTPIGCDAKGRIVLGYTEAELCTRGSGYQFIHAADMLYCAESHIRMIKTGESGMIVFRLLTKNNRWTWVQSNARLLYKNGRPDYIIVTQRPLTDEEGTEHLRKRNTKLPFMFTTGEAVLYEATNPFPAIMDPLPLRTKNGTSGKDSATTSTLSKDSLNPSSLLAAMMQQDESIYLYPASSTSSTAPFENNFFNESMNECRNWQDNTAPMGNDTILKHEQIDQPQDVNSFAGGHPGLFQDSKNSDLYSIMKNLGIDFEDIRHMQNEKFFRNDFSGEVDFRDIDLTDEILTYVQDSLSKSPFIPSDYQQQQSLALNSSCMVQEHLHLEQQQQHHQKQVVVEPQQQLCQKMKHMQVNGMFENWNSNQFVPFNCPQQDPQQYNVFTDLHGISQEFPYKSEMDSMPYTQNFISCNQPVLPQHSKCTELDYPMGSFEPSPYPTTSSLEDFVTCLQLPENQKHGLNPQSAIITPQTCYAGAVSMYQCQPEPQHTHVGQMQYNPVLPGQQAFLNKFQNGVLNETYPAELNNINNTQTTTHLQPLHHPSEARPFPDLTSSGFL
In words: Luminescence-based cell-based high throughput dose response assay for activators of the Aryl Hydrocarbon Receptor (AHR). [Related pubchem assays: 2796 (Primary screen (AHR activators in singlicate)), 2845 (Confirmation screen (AHR activators in triplicate)), 434939 (Counterscreen (PXR activators in triplicate)), 2804 (Summary (AHR activators))]. The format is ADME.

Another experiment concerns the target T5, Caspase-6 (Homo sapiens, UniProt P55212).
T5 sequence (P55212 whole entry): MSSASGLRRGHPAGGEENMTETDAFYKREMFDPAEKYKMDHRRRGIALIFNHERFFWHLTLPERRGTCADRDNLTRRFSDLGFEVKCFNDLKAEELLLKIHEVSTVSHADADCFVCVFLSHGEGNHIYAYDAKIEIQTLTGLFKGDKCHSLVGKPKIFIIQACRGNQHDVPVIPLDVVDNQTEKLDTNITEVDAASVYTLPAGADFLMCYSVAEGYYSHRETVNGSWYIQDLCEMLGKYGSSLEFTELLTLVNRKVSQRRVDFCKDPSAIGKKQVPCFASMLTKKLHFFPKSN
In words: inhibition of CASP6 peptide cleavage – biochemical, VEID-R110 fluorescence, cherry-pick, dose response (AID 720632).

A further experiment concerns Streptococcus. In words: GAS UMAA2166 growth inhibition – luminescence, BacTiterGlo, counter-screen for streptokinase expression inhibitor project, dose response (AID 1915).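 Further: potency for reduction of bacterial viability or growth.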 The format is functional, organism-based.
The subject of experiment [5] is Streptococcus sp. 'group A'. In words: Streptococcus pyogenes SK(-)GAS viability under kanamycin – luminescence, BacTiterGlo, confirmation, counter-screen for streptokinase expression inhibitor project, dose response (AID 1900). Type of experiment: functional, organism-based.
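Wherever Absolute IC50 (XBP1) is given: confirmatory dose-response counter-screen serving a CHOP assay.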

Consider `Cc1cc(S(=O)(=O)N2CCN(Cc3ccccc3)CC2)c(C)s1`, for which the IC50 (as a rule, the concentration that inhibits the measured activity by half) was > 100 µM (inactive) in experiment [1] and > 100 µM (not active) in experiment [2].
`Cn1c(-c2cccc(OCc3ccccc3)c2)nc2c1c(=O)[nH]c(=O)n2Cc1ccccc1`: the “Absolute IC50 (XBP1)” value at X-box-binding protein 1 is 10 µM.
With `CC(C)CC(NC(=O)c1ccco1)C(=O)Nc1ccc2c(c1)OCCO2` (stereo unspecified), the IC50 in experiment [1] was > 100 µM (inactive); in experiment [2], > 100 µM (not active). In addition, the EC50 (usually the concentration that produces a half-maximal response) in experiment [3] is 11.3 µM (active).
`COC(=O)c1ccccc1NC(=O)Cn1ccnc1`: the EC50 in experiment [4] is 2.18 µM (active).
Turning to `CN1CCN(c2ccccc2NC(=O)c2ccc(-c3cccc([N+](=O)[O-])c3)o2)CC1`, the results for the IC50 in experiment [1] and in experiment [2] were > 100 µM (inactive) and > 100 µM (not active), respectively.
Regarding `CCCC(=O)Nc1nn(C)c2nc3cc(C)ccc3cc12`, the EC50 in experiment [4] was 0.458 µM (active).
As to `O=C(O)COn1c(-c2ccccc2)nc2ccc([N+](=O)[O-])cc21`, in experiment [4], the EC50 was 4.82 µM (active). In addition, the concentration at half-maximal activity (AC50) (in general, the concentration at which the activity in the assay is half-maximal) on Caspase-6 is 5.23 µM (active).
With `CC[C@H]1OC(=O)[C@H](C)[C@@H](O[C@H]2C[C@@](C)(OC)[C@@H](O)[C@H](C)O2)[C@H](C)[C@@H](O[C@@H]2O[C@H](C)C[C@H](N(C)C)[C@H]2O)[C@](C)(O)C[C@@H](C)[C@@H]2N[C@@H](COCCOC)O[C@H]([C@H]2C)[C@]1(C)O` [DIRITHROMYCIN], the results for the EC50 (with Streptococcus; in experiment [5]) were 117 nM (active) and < 60 nM (active), respectively. For the same molecule, the IC50 in experiment [1] is > 100 µM (inactive); in experiment [2], > 100 µM (not active).
